# Read-outs that look alike come from different tables or passages of the source.
# Legend:
# [1] = system: HL-60 cells (NADPH oxidase / respiratory burst); assay: O2- formation by DMSO-differentiated HL-60 cells, FMLP-stimulated (SOD-sensitive cytochrome c reduction); assay type: cell-based; conditions: for activity at 0.4 µM / activity at 2 µM / activity at 4 µM / activity at 10 µM: Homo sapiens, HL-60; for activity at 0.4 µM: 0.4 μM compactin; for activity at 2 µM: 2 μM compactin; for activity at 4 µM: 4 μM compactin; for activity at 10 µM: 10 μM compactin
# Procedure: HL-60 cells were maintained in stationary culture in RPMI 1640 medium (Gibco, Grand Island, NY) containing 10% fetal bovine serum at 37° C in an atmosphere of 95 air and 5% CO2. The cells (about 8×10^5 /ml) were differentiated into neutrophil-like cells by treatment with 1.3% DMSO for six days (Harris, et al., J. Leukocyte Biol. 37: 407-422 (1985)). The cells were treated with the indicated levels of compactin or lovastatin by addition of a 1,000-fold concentrated stock solution to the appropriate concentration on day 4 of differentiation. […] In studies of the protective effect of mevalonic acid, the compound was added as the mevalonolactone (Sigma Chemical Co., St. Louis, MO) at a concentration of 1 mM to the cell culture on days 4 to 6. Similarly, cholesterol was added in the form of LDL prepared according to the method of Curtiss and Edgington (Curtiss, et al., J. Biol. Chem. 257: 15213-15221 (1991)) at a final concentration of 50 μg/ml; ubiquinone (Sigma Chemical Co., St. Louis, MO) was added as Coenzyme Q-10 at a final concentration of 0.5 mM; and dolichol (Sigma Chemical Co., St. Louis, MO) was added as a dispersion in phosphatidylcholine at a final concentration of 0.5 mM (Cutts, et al., J. Cell Physiol. 139: 550-555 (1989)).
# O2 --formation by HL-60 cells was assessed by the SOD-sensitive reduction of cytochrome c. Cells were suspended at 1×10^7 /ml in Krebs-Ringer Hepes buffer with 5.5 mM glucose (KRHG) and 50-100μl of cells were added to a cuvette containing 100 μM cytochrome c (type III, Sigma Chemical Co., St. Louis, MO), ±300 μg/ml SOD (Sigma Chemical Co., St. Louis, MO) in 700-750 μl KRHG. Cytochalasin b (Sigma Chemical Co., St. Louis, MO) was added to a final concentration of 5 μg/ml, and the cells were incubated at 37° C. for five minutes while a stable baseline at a wavelength of 550 nm was obtained. O2 --formation was initiated by the addition of 1 μM N-formylmethionylleucylphenylalanine (FMLP; Sigma Chemical Co., St. Louis, MO) or 1μg/ml phorbol myristate acetate (PMA; Sigma Chemical Co., St. Louis, MO). Cytochrome c reduction at 550nm was continuously monitored and maximal rate and extent of the reaction calculated.
# [2] = system: peripheral blood neutrophils; assay: Respiratory burst of peripheral blood neutrophils in response to FMLP after short-term compactin; assay type: cell-based; conditions: 10 μM, up to two hours
# [3] = system: CD14 antigen; assay: HL-60 differentiation: CD14 antigen expression (flow cytometry); assay type: cell-based; conditions: compactin-treated cells
# Procedure: HL-60 cells were maintained in stationary culture in RPMI 1640 medium (Gibco, Grand Island, NY) containing 10% fetal bovine serum at 37° C in an atmosphere of 95 air and 5% CO2. The cells (about 8×10^5 /ml) were differentiated into neutrophil-like cells by treatment with 1.3% DMSO for six days (Harris, et al., J. Leukocyte Biol. 37: 407-422 (1985)). The cells were treated with the indicated levels of compactin or lovastatin by addition of a 1,000-fold concentrated stock solution to the appropriate concentration on day 4 of differentiation. […]
# Cell viability was determined by uptake of propidium iodide (537-059; Calbiochem-Behring Corp., La Jolla, CA), detected from the emission fluorescence at 625/35 nm using a DM560 dichronic mirror (Krishan, J. Cell. Biol. 66: 188-192 (1975)). Expression of N-formyl peptide receptor was determined using fluorescein-labeled N-CHONle-Leu-Phe-Nle-Tyr-Lys (Molecular Probes, Inc., Eugene, OR) essentially by the method of Sklar and Finney (Sklar and Finney, Cytometry 3: 161-165 (1982)). Specificity of ligand binding was determined in the presence of 4 mM unlabeled T-boc peptide. […]
# HL-60 differentiation was assessed using two distinct markers: appearance of N-formyl peptide receptors and appearance of the CD14 antigen.
# [4] = system: NADPH oxidase; assay: Cell-free oxidase system with compactin included in the assay cuvette; assay type: biochemical; conditions: 10 μM compactin in the assay cuvette
# Procedure: To assess O2 --formation using HL-60 membrane and cytosol, the cell-free system of Curnutte, et al. (Curnutte, et al., J. Biol. Chem. 262: 5563-5569 (1987); Curnutte, et al.,m J. Biol. Chem. 262: 6450-6452 (1987)) was utilized. Briefly, HL-60 membrane pellet (50-60μg) or human neutrophil membrane (6.35×10^6 cell equivalents) was added to a cuvette containing 100 μM cytochrome c (type III, Sigma Chemical Co., St. Louis, MO), 6.25 mM MgCl2, 93 mM KCl, 2.8 mM NaCl, 9.3 mM Pipes pH 7.3, 0.8mM ATP, 0.16 mM NADPH, 10 μM GTPgammaS, 225 μg HL-60 cytosol, or 250 μg ([…]; cell equivalents) of human neutrophil cytosol and ±300μg/ml SOD (Sigma Chemical Co., St. Louis, MO). After a three-minute equilibration at 25° C., the formation of O2 --was initiated by the addition of 100 μM SDS. O2 --generation was monitored continuously as the SOD-sensitive reduction of cytochrome c at 550 nm. Human neutrophil plasma membranes (gamma-GSP) and cytosol (GSS) were prepared as described in (Curnutte, et al., suora (1987)).
# Treatment of peripheral blood neutrophils with 10 μM compactin for up to two hours produced no effect upon the ability of these cells to support a respiratory burst in response to FMLP. […] It seems unlikely that both compounds would randomly produce similar nonspecific toxic effects on the NADPH oxidase.
# [5] = read-out: FMLP-stimulated O2- formation, Extent
# [6] = read-out: FMLP-stimulated O2- formation, Rate
compound,measurement,setting,value
CC[C@H](C)C(=O)O[C@H]1CCC=C2C=C[C@H](C)[C@H](CC[C@@H]3C[C@@H](O)CC(=O)O3)[C@H]21 [compactin],activity at 0.4 µM,[1]; [5],71 ± 10%
same,activity at 0.4 µM,[1]; [6],77 ± 10%
same,activity at 2 µM,[1]; [5],36 ± 11%
same,activity at 2 µM,[1]; [6],47 ± 11%
same,activity at 4 µM,[1]; [5],22 ± 1%
same,activity at 4 µM,[1]; [6],39 ± 4.1%
same,activity at 10 µM,[1]; [5],12 ± 2.1%
same,activity at 10 µM,[1]; [6],15 ± 2.6%
same,inhibition of O2- formation in response to FMLP,[1]; various concentrations,dose-dependent inhibition
same,effect on respiratory burst of peripheral blood neutrophils,[2],no effect
same,CD14 expression,[3],normal
same,"inhibition of O2- formation, cell-free",[4],did not inhibit

# Reference: US5244916A, “Inhibition of respiratory burst using posttranslational modification inhibitors” (The Scripps Research Institute, priority 1992, dated 1993)
